Experimental findings from ChEMBL document CHEMBL1201862, “PubChem BioAssay data set” (2004) are described below.

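48-hour exposure; five concentrations; linearly interpolated endpoints. GI50 = concentration required for 50% inhibition of growth.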 Activity calls are given as the source filed them. Cut-off read from the data, not from the text of the source: active = GI50 up to about 1.1 µM and inactive = higher. Square brackets hold non-standard residues; d marks the D form. Peptide text beside a SMILES is read from it. * marks the point of attachment. Tyr(3-Br) = N[C@@H](Cc1ccc(O)c(Br)c1)C(=O)O; Boc = CC(C)(C)OC(=O)*

Among the test systems are IGROV-1; NCI-H522; A549; OVCAR-5; SN12C; NCI-H23; SNB-75; LOX IMVI; HOP-62; U-251; SW-620; UACC-62; 786-0; MDA-N; SK-OV-3; HT-29; NCI-H460; OVCAR-4; Malme-3M.
What all share (assay): growth of human tumour cells (NCI), 48 h

As for `COC(=O)c1cc2c(o1)Sc1ccccc1NC2=O`, the GI50 with IGROV-1 was > 100 µM (inactive); in the test on NCI-H522 it was 2.75 µM (inactive); with A549 it was > 100 µM (inactive); in the test on OVCAR-5 it was > 100 µM (inactive); with SN12C, > 100 µM (inactive); with NCI-H23, > 100 µM (inactive). Moreover, the GI50 with SNB-75 is 24.8 µM (inactive); with LOX IMVI, > 100 µM (inactive); in the test with HOP-62, 52.1 µM (inactive); in the test with U-251 it was 83.2 µM (inactive); with SW-620, > 100 µM (inactive); in the test on UACC-62, > 100 µM (inactive). The GI50 is 87.1 µM (inactive) in the test with 786-0; > 100 µM (inactive) with MDA-N; > 100 µM (inactive) with SK-OV-3; > 100 µM (inactive) in the test with HT-29; > 100 µM (inactive) in the test on NCI-H460; > 100 µM (inactive) in the test on OVCAR-4.

Take `C/C(Cc1ccc2c(c1)OCO2)=N\NC(=O)C(C)Sc1nnc(SC(C)C(=O)N/N=C(\C)Cc2ccc3c(c2)OCO3)s1` (centres undefined): the GI50 was > 100 µM (inactive) with IGROV-1; > 100 µM (inactive) in the test with A549; > 100 µM (inactive) in the test on OVCAR-5; > 100 µM (inactive) in the test with NCI-H23; 83.9 µM (inactive) with SNB-75; > 100 µM (inactive) in the test on LOX IMVI. The GI50 in the test with HOP-62, in the test with U-251, in the test with SW-620, with UACC-62, with 786-0 and with MDA-N was > 100 µM (inactive) throughout. Moreover, the GI50 in the test with SK-OV-3, with HT-29, with NCI-H460, with OVCAR-4 and in the test with Malme-3M was > 100 µM (inactive) each time.

With `O=C(O)c1ccc(/C=N\N(CCO)C2=NCCN2)cc1`, the GI50 is > 100 µM (inactive) with IGROV-1; > 100 µM (inactive) with A549; > 100 µM (inactive) in the test on OVCAR-5; > 100 µM (inactive) in the test on SN12C; > 100 µM (inactive) in the test with NCI-H23; 66.5 µM (inactive) in the test on SNB-75. For the same compound, the GI50 in the test on LOX IMVI, in the test with HOP-62, in the test on U-251, in the test with SW-620, in the test with UACC-62 and in the test with 786-0 was > 100 µM (inactive) throughout. Moreover, the GI50 in the test with MDA-N, in the test on SK-OV-3, with HT-29, in the test on NCI-H460, in the test with OVCAR-4 and in the test on Malme-3M was > 100 µM (inactive) in each case.

As for `COC(=O)CCC(NC(=O)C(C)NC(=O)COC1C(O)C(OC(=O)CCNc2c3ccccc3nc3cccc([N+](=O)[O-])c23)OC(OCc2ccccc2)C1NC(C)=O)C(N)=O` (centres undefined), the GI50 in the test on IGROV-1 is > 10 µM (inactive); in the test with A549, > 10 µM (inactive); with OVCAR-5, > 10 µM (inactive); in the test on SN12C, 4.2 µM (inactive); in the test with NCI-H23, > 10 µM (inactive); in the test on SNB-75 it was > 10 µM (inactive). Further, the GI50 in the test with LOX IMVI is > 10 µM (inactive); in the test with HOP-62, 3.7 µM (inactive); in the test with U-251 it was 9.98 µM (inactive); in the test with SW-620 it was 0.114 µM (active); in the test with UACC-62, 3.08 µM (inactive); in the test with 786-0 it was 3.56 µM (inactive). The GI50 in the test with MDA-N was 2.24 µM (inactive); in the test on SK-OV-3 it was > 10 µM (inactive); in the test with HT-29, 2.62 µM (inactive); in the test with NCI-H460, > 10 µM (inactive); with Malme-3M, 2.22 µM (inactive).

With `COc1ccccc1N1C(=O)C2C3c4ccccc4C(OC(C)=O)(c4ccccc43)C2C1=O` (centres undefined), the GI50 was > 100 µM (inactive) with IGROV-1; > 100 µM (inactive) in the test with A549; > 100 µM (inactive) with OVCAR-5; > 100 µM (inactive) with SN12C; > 100 µM (inactive) in the test with NCI-H23; 17.5 µM (inactive) in the test on SNB-75. Moreover, the GI50 in the test on LOX IMVI was > 100 µM (inactive); in the test on HOP-62, 97.9 µM (inactive); in the test on U-251, 60.7 µM (inactive); in the test with SW-620 it was > 100 µM (inactive); in the test on UACC-62, > 100 µM (inactive); with 786-0, 39.3 µM (inactive). Also, the GI50 in the test on MDA-N is > 100 µM (inactive); in the test on SK-OV-3, > 100 µM (inactive); in the test with HT-29, > 100 µM (inactive); with NCI-H460 it was > 100 µM (inactive); in the test with OVCAR-4, 30.4 µM (inactive); in the test with Malme-3M, 33.8 µM (inactive).

In the case of `C=C1CC=CC(C)(C)C1C/C=C(\C)C(O)CBr` (centres undefined), the GI50 is 19.7 µM (inactive) with IGROV-1; 4.2 µM (inactive) with NCI-H522; 74.3 µM (inactive) with A549; > 100 µM (inactive) in the test with OVCAR-5; > 100 µM (inactive) in the test on SN12C; > 100 µM (inactive) with NCI-H23. Further, the GI50 in the test on LOX IMVI was 19.1 µM (inactive); in the test with HOP-62, > 100 µM (inactive); with U-251, 30.1 µM (inactive); in the test with SW-620, 33.1 µM (inactive); in the test on UACC-62, 53.7 µM (inactive); in the test with 786-0, 28.6 µM (inactive). The GI50 with MDA-N is 42.6 µM (inactive); with SK-OV-3, > 100 µM (inactive); in the test with HT-29, 51.8 µM (inactive); with NCI-H460, 95.7 µM (inactive); in the test with OVCAR-4 it was 76 µM (inactive).

For `COc1cc2c(cc1OCCCNC(=O)c1cc3ccccc3[nH]1)N=C[C@@H]1CCCN1C2=O`, the GI50 in the test with IGROV-1 is 0.277 µM (active); in the test on NCI-H522, 0.0141 µM (active); in the test on A549, 0.632 µM (active); in the test with OVCAR-5 it was 0.352 µM (active); in the test with SN12C, 0.409 µM (active); with NCI-H23, 0.504 µM (active). In addition, the GI50 with SNB-75 is 0.263 µM (active); in the test with LOX IMVI, 0.421 µM (active); in the test on HOP-62 it was 0.326 µM (active); in the test with U-251, 0.148 µM (active); with SW-620 it was 0.378 µM (active); in the test on UACC-62, 0.234 µM (active). For the same compound, the GI50 was 0.237 µM (active) in the test with 786-0; 0.254 µM (active) in the test with MDA-N; 1.6 µM (inactive) in the test on SK-OV-3; 0.296 µM (active) in the test with HT-29; 0.675 µM (active) with NCI-H460; 0.403 µM (active) in the test with OVCAR-4.

On to `COC(=O)[C@H](Cc1ccc(O)c(Br)c1)NC(=O)[C@H](Cc1ccc(O)cc1)NC(=O)OC(C)(C)C` (Boc-Tyr-[Tyr(3-Br)]-OMe), for which the GI50 in the test on IGROV-1 is 37 µM (inactive); with A549, > 100 µM (inactive); in the test on OVCAR-5, > 100 µM (inactive); in the test with SN12C it was 78.5 µM (inactive); with NCI-H23, 27.4 µM (inactive); with SNB-75 it was 92 µM (inactive). Further, the GI50 in the test with LOX IMVI is 22.5 µM (inactive); in the test on HOP-62, > 100 µM (inactive); in the test on SW-620 it was 42.6 µM (inactive); in the test with 786-0 it was 41.3 µM (inactive); with MDA-N, > 100 µM (inactive); in the test with SK-OV-3, > 100 µM (inactive). The GI50 in the test with HT-29 is 37.7 µM (inactive); with NCI-H460, 19.2 µM (inactive); with OVCAR-4, 29.8 µM (inactive); in the test with Malme-3M, 24.5 µM (inactive).
